Assay results taken from patent publication US8324225B2, “Pyrrolopyrimidine compounds and their uses” (Novartis AG, priority 2006, dated 2012).

target: CDK4 (Homo sapiens, UniProt P11802); test: CDK4 HTRF; assay type: biochemical; details: Table E; read-out: CDK4 HTRF/IC50 [umol l − 1]
Sequence (P11802 whole entry): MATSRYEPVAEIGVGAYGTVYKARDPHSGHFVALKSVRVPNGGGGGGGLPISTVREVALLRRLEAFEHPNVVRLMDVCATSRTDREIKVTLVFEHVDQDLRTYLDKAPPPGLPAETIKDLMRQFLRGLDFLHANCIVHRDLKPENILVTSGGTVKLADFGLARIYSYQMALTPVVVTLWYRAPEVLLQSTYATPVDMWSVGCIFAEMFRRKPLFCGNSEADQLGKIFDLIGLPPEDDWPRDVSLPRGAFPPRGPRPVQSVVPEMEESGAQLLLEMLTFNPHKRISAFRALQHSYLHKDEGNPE
Sequence (P24385 whole entry partner): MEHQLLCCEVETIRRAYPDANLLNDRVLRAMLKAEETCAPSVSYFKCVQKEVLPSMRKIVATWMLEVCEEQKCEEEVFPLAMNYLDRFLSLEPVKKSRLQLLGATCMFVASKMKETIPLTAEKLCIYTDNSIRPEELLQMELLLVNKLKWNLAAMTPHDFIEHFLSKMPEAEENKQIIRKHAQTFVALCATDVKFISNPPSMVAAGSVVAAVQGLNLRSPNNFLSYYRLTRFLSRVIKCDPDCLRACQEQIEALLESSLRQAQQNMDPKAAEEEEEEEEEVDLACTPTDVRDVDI

SMILES	IC50
CCC(CC)n1c(CNc2cccnc2)cc2cnc(Nc3ccc(N4CCN(C(C)=O)CC4)cc3)nc21 [Example 369]	< 10 µM
Cc1cn(C2CCCC2)c2nc(Nc3ccc(N(C)C)cc3)ncc12 [Example 311]	< 10 µM
Cc1cn(C2CCCC2)c2nc(Nc3ccc(N4CCOCC4)cn3)ncc12 [Example 302]	< 10 µM
Cc1cn(C2CCCC2)c2nc(Nc3ccncc3)ncc12 [Example 298]	< 10 µM
Cc1cn(C2CCCC2)c2nc(Nc3ccc(N4CCNCC4)c(F)c3)ncc12 [Example 285]	< 10 µM
CC(=O)N1CCN(c2ccc(Nc3ncc4ccn(C5CCCC(C)C5)c4n3)cc2)CC1 (centres unmarked) [Example 241]	< 10 µM
CCC(CC)n1c(COC)cc2cnc(Nc3ccc(C(=O)NC4CCCC4)cc3)nc21 [Example 380]	< 10 µM
CCC(C(=O)OC)n1ccc2cnc(Nc3ccc(N4CCNCC4)cc3)nc21 (centres unmarked) [Example 221]	< 10 µM
Cc1cn(-c2ccccc2)c2nc(Nc3ccc(N4CCNCC4)cc3)ncc12 [Example 437]	< 10 µM
CCC(C(N)=O)n1ccc2cnc(Nc3ccc(N4CCNCC4)cc3)nc21 (centres unmarked) [Example 234]	< 10 µM
CCC(CC)n1c(C(=O)OC)cc2cnc(Nc3ccc(N4CCN(C(C)=O)CC4)cc3)nc21 [Example 373, 2-[4-(4-Acetyl-piperazin-1-yl)-phenylamino]-7-(1-ethyl-propyl)-7H-pyrrolo[2,3-d]pyrimidine-6-carboxylic acid methyl ester]	< 10 µM
Cc1cn(C2CCCC2)c2nc(Nc3ccc4[nH]ncc4c3)ncc12 [Example 281]	< 10 µM
CCC(CC)n1c(CNCc2ccco2)cc2cnc(Nc3ccc(N4CCN(C(C)=O)CC4)cc3)nc21 [Example 449]	< 10 µM
Cc1cn(C2CCCC2)c2nc(Nc3cccnc3)ncc12 [Example 300]	< 10 µM
Cc1cn(-c2cccnc2)c2nc(Nc3ccc(N4CCNCC4)cc3)ncc12 [Example 322]	< 10 µM
CCc1cn(C2CCCC2)c2nc(Nc3ccc(N4CCNCC4)cc3)ncc12 [Example 438]	< 10 µM
CCC(CC)n1c(C(=O)Nc2ccc(CN3CCN(C)CC3)cc2)cc2cnc(Nc3ccc(N4CCNCC4)cc3)nc21 [Example 354]	< 10 µM
Cc1cn(C2CCCC2)c2nc(Nc3ccc(C(=O)N4CCOCC4)cc3)ncc12 [Example 292]	< 10 µM
CCC(C)n1ccc2cnc(Nc3ccc(N4CCN(C(C)=O)CC4)cc3)nc21 (centres unmarked) [Example 222]	< 10 µM

SMILES	IC50
CCOC(=O)C(C(C)C)n1ccc2cnc(Nc3ccc(N4CCN(C(C)=O)CC4)cc3)nc21 (centres unmarked) [Example 223]	< 10 µM
CCC(CC)n1c(C(=O)Nc2ccc(C(C)(C)C)cc2)cc2cnc(Nc3ccc(N4CCNCC4)cc3)nc21 [Example 349]	< 10 µM
Cc1cn(C2CCCC2)c2nc(Nc3ccc(N4CCCCC4)cc3)ncc12 [Example 278]	< 10 µM
Cc1c(C(=O)N(C)C)n(C2CCCC2)c2nc(Nc3ccc(N4CCNCC4)cn3)ncc12 [Example 392]	< 10 µM
CC(=O)N1CCN(c2ccc(Nc3ncc4ccn(C5CCCCC5=O)c4n3)cc2)CC1 (centres unmarked) [Example 226]	< 10 µM
c1cc(N2CCNCC2)ccc1Nc1ncc2ccn(C3CCOCC3)c2n1 [Example 235]	< 10 µM
Cc1cn(-c2ccccn2)c2nc(Nc3ccc(N4CCNCC4)cn3)ncc12 [Example 320, (5-Methyl-7-pyridin-2-yl-7H-pyrrolo[2,3-d]pyrimidin-2-yl)-(5-piperazin-1-yl-pyridin-2-yl)-amine]	< 10 µM
Cc1cn(C2CCCC2)c2nc(Nc3ccc(N4CCN(S(C)(=O)=O)CC4)cc3)ncc12 [Example 286]	< 10 µM
CCC(CC)n1c(C(=O)N2CCCC2)cc2cnc(Nc3ccc(N4CCNCC4)cc3)nc21 [Example 337]	< 10 µM
Cc1cc(-c2c(C)c3cnc(Nc4ccc(N5CCNCC5)cn4)nc3n2C2CCCC2)on1 [Example 405]	< 10 µM
CCC(CC)n1c(CNC2CCCC2)cc2cnc(Nc3ccc(N4CCN(C(C)=O)CC4)cc3)nc21 [Example 370]	< 10 µM
CC(=O)N1CCN(c2ccc(Nc3ncc4ccn(C(C)CN(C)C)c4n3)cc2)CC1 (centres unmarked) [Example 229]	< 10 µM
CCC(CC)n1c(COC)cc2cnc(Nc3ccc(N4CCN(C(C)=O)CC4)cc3)nc21 [Example 379]	< 10 µM
CC(=O)N1CCN(c2ccc(Nc3ncc4ccn(C5CCC(C)CC5)c4n3)cc2)CC1 (centres unmarked) [Example 236]	< 10 µM
CCCCNC(=O)c1cc2cnc(Nc3ccc(N4CCNCC4)cc3)nc2n1C(CC)CC [Example 336]	< 10 µM
CCC(CC)n1c(CNc2cc(C)[nH]n2)cc2cnc(Nc3ccc(N4CCN(C(C)=O)CC4)cc3)nc21 [Example 372]	< 10 µM
Cc1cn(C2CCCC2)c2nc(Nc3ccc(N4CCNCC4)nc3)ncc12 [Example 283]	< 10 µM
CC(=O)c1c(C)c2cnc(Nc3ccc(N4CCNCC4)cn3)nc2n1C1CCOCC1 [Example 388]	< 10 µM
CCC(CC)n1c(C(=O)NC2CCCC2)cc2cnc(Nc3ccc(N4CCNCC4)cc3)nc21 [Example 344]	< 10 µM

SMILES	IC50
CCC(C(=O)OC)n1ccc2cnc(Nc3ccc(N4CCN(C(C)=O)CC4)cc3)nc21 (centres unmarked) [Example 219]	< 10 µM
Cc1cn(C2CCCC2)c2nc(Nc3ccc4[nH]ccc4c3)ncc12 [Example 282]	> 10 µM
CC(=O)N1CCN(c2ccc(Nc3ncc4ccn(C5CCOCC5)c4n3)cc2)CC1 [Example 228]	< 10 µM
Cc1cn(C2CCCC2)c2nc(Nc3ccc(CO)cc3)ncc12 [Example 466]	< 10 µM
Cc1cn(C2CCCC2)c2nc(Nc3ccc(-n4ccnc4)cc3)ncc12 [Example 312]	< 10 µM
CCC(C(N)=O)n1ccc2cnc(Nc3ccc(N4CCN(C(C)=O)CC4)cc3)nc21 (centres unmarked) [Example 227]	< 10 µM
CCC(CC)n1c(C(=O)N2CCOCC2)cc2cnc(Nc3ccc(N4CCNCC4)cc3)nc21 [Example 343]	< 10 µM
Cc1cn(C2CCCC2)c2nc(Nc3ccc(S(N)(=O)=O)cc3)ncc12 [Example 288]	< 10 µM
CCC(CC)n1c(CNc2ccon2)cc2cnc(Nc3ccc(N4CCN(C(C)=O)CC4)cc3)nc21 [Example 371]	< 10 µM
CN1CCN(c2ccc(Nc3ncc4ccn(C5CCCC5)c4n3)nc2)CC1 [Example 255]	< 10 µM
CN(C)CC1CCC(n2ccc3cnc(Nc4ccc(N5CCNCC5)cc4)nc32)C1 (centres unmarked) [Example 249]	< 10 µM
CCC(=O)N1CCN(c2ccc(Nc3ncc4ccn(C(CC)CC)c4n3)cc2)CC1 [Example 237]	< 10 µM
Cc1cn(-c2nccs2)c2nc(Nc3ccc(N4CCNCC4)cn3)ncc12 [Example 321]	< 10 µM
CCC(CC)n1c(CNC(C)C)cc2cnc(Nc3ccc(N4CCNCC4)cc3)nc21 [Example 367]	< 10 µM
Cc1cn(C2CCCC2)c2nc(Nc3ccc(CN4CCN(C(=O)OC(C)(C)C)CC4)cc3)ncc12 [Example 462]	< 10 µM
CC(C)c1cn(C2CCCC2)c2nc(Nc3ccc(N4CCNCC4)cn3)ncc12 [Example 440]	< 10 µM
CCC(CC)n1c(CNC(C)C)cc2cnc(Nc3ccc(N4CCN(C(C)=O)CC4)cc3)nc21 [Example 366]	< 10 µM
CN(C)C(=O)c1cc2cnc(NCc3ccc(N4CCNCC4)cc3)nc2n1C1CCCC1 [Example 467]	< 10 µM

target: CDK2/Cyclin-A kinase complex (Homo sapiens, UniProt P24941); test: CDK2 IMAP fluorescence polarization assay; assay type: biochemical; details: Table C; read-out: CDK2 IC50
Source text: In order to test the CDK2 activity of the compounds of the invention, the CDK2 assay is a fluorescence polarization assay, where the enzyme is a purified active CDK2/Cyclin-A kinase complex and the substrate is a synthesized peptide derived from Histone H1. This assay utilizes the IMAP technology from Molecular Devices. The active CDK2/Cyclin-A complex phosphorylates the peptide substrate, which is conjugated with the TAMRA tag. The phosphorylated site is then recognized by a metal containing molecule that interacts with the TAMRA tag to induce a high fluorescence polarization. The compounds that inhibit the CDK2 kinase activity would inhibit the fluorescence output of the assay.

SMILES	IC50
CC(=O)N1CCN(c2ccc(Nc3ncc4c(C)cn(C5CCCC5)c4n3)cc2)CC1	< 10 µM
Cc1cn(C2CCCC2)c2nc(Nc3ccc(N4CCNCC4)cn3)ncc12	> 10 µM
Cc1cn(C2CCCC2)c2nc(Nc3ccc(N4CCN(C)CC4)cc3)ncc12	> 10 µM
Cc1cn(C2CCCC2)c2nc(Nc3ccc(N4CCNCC4)cc3)ncc12	< 10 µM

same assay, conditions: Table E; read-out: CDK2cyA IMAP/IC50 [umol l − 1]

SMILES	IC50
Cc1cn(C2CCCC2)c2nc(Nc3ccc4[nH]ccc4c3)ncc12 [Example 282]	> 15 µM

target: hCDK1/B (Homo sapiens, UniProt P06493); test: hCDK1/B; assay type: biochemical; details: Table E; read-out: hCDK1/B/IC50 [umol l − 1]
Sequence (P06493 whole entry): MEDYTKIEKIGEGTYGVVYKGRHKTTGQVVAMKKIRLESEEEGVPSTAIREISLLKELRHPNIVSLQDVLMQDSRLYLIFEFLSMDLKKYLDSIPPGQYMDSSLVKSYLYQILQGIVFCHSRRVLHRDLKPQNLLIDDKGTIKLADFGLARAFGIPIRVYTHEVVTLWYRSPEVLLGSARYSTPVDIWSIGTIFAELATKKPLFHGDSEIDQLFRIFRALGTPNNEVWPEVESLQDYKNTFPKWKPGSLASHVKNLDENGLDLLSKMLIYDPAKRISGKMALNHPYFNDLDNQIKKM
Sequence (P14635 whole entry partner): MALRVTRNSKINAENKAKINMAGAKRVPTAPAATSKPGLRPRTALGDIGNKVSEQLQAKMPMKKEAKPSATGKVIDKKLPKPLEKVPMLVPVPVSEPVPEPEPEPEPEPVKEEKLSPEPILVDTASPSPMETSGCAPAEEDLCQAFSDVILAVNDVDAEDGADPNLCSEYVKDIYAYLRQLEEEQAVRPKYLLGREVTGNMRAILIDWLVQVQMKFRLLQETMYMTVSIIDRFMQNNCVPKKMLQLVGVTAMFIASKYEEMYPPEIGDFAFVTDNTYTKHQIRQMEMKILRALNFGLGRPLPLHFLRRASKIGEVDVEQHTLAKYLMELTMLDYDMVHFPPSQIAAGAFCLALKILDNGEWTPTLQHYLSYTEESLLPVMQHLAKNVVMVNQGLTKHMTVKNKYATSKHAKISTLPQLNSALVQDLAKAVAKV

SMILES	IC50
Cc1cn(C2CCCC2)c2nc(Nc3ccc4[nH]ccc4c3)ncc12 [Example 282]	> 15 µM

target: CDK4/Cyclin-D1 kinase complex (Homo sapiens, UniProt P11802); test: CDK4 ELISA based assay, Rb phosphorylation at Serine780; assay type: biochemical; details: Table C
Source text: The compounds that inhibit the CDK4 kinase activity would inhibit the signal output of the assay.

CDK4/Cyclin-D1 kinase complex, sequence (P11802 whole entry): as the sequence (P11802 whole entry) above
CDK4/Cyclin-D1 kinase complex, sequence (P24385 whole entry partner): as the sequence (P24385 whole entry partner) above

SMILES	IC50
CN1CCN(c2ccc(Nc3ncc4ccn(C5CCCC5)c4n3)cc2)CC1	< 10 µM
Cc1cn(C2CC2)c2nc(Nc3ccc(N4CCNCC4)cc3)ncc12	< 10 µM
c1cc(Nc2ncc3ccn(C4CCCC4)c3n2)ncc1N1CCNCC1	> 10 µM
CC(=O)N1CCN(c2ccc(Nc3ncc4c(C)cn(C5CCCC5)c4n3)cc2)CC1	< 10 µM
CC(C)(C)OC(=O)N1CCN(c2ccc(Nc3ncc4ccn(C5CCCC5)c4n3)nc2)CC1	> 10 µM
Cc1cn(C2CCCC2)c2nc(Nc3ccc(N4CCNCC4)cn3)ncc12	< 10 µM
CC(=O)N1CCN(c2ccc(Nc3ncc4ccn(C5CCCC5)c4n3)nc2)CC1	> 10 µM
Cc1cn(C2CCCC2)c2nc(Nc3ccc(N4CCN(C)CC4)cc3)ncc12	< 10 µM
c1cc(N2CCNCC2)ccc1Nc1ncc2ccn(C3CCCC3)c2n1	< 10 µM
Cc1cn(C2CC2)c2nc(Nc3ccc(N4CCNCC4)cn3)ncc12	< 10 µM
CC(=O)N1CCN(c2ccc(Nc3ncc4ccn(C5CCCC5)c4n3)cc2)CC1	> 10 µM
Cc1cn(C2CCCCC2)c2nc(Nc3ccc(N4CCNCC4)cn3)ncc12	< 10 µM
